Among the data in ChEMBL document CHEMBL1909046, “DrugMatrix in vitro pharmacology data” are IC50 and Ki values, retold here.

In general, IC50 refers to the concentration that gives 50% inhibition. Broadly, the Ki is the equilibrium dissociation constant of an inhibitor or competing ligand from its target.

Assay [1] concerns the target T1, 3-hydroxy-3-methylglutaryl-coenzyme A reductase (Homo sapiens, UniProt P04035).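 Further: enzyme inhibition assay of HMG-CoA reductase using radiolabeled [14C]HMG-CoA as substrate; in other assays of this panel Not Active means under 50% inhibition at 10 µM.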
T1 sequence (P04035 whole entry): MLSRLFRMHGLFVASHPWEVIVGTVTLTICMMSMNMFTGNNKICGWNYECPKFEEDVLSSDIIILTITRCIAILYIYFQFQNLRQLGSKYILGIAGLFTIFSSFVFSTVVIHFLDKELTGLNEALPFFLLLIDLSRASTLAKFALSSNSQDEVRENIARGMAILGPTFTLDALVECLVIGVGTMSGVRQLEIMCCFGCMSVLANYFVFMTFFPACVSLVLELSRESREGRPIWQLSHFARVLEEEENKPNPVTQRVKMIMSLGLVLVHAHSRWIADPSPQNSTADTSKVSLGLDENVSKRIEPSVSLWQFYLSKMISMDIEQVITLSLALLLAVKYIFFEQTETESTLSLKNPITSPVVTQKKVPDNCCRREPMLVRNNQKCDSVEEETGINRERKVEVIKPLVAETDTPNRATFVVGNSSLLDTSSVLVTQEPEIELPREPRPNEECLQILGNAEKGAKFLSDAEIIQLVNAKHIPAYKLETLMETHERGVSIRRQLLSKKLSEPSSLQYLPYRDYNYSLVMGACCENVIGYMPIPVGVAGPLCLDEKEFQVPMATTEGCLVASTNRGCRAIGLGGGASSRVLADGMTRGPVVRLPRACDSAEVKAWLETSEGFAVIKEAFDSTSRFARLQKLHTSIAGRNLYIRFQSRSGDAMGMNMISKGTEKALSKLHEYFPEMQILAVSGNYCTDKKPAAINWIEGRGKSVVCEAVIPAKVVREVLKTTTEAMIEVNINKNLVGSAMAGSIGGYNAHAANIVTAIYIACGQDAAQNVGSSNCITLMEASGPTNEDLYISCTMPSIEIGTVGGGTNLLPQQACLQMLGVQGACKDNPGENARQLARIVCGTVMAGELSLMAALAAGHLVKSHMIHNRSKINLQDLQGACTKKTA
Also on record: species or system Escherichia coli.

The nature of assay [2]: DRUGMATRIX: GABAA, Flunitrazepam, Central radioligand binding (ligand: [3H] Flunitrazepam). Type of assay: cell membranes, Rattus norvegicus, Wistar, Brain, Membrane. The following applies: Not Active = under 50% inhibition at 10 µM.
Assay [3] is described as follows: DRUGMATRIX: beta-Lactamase enzyme inhibition (substrate: Nitrocefin). The following applies: Not Active = under 50% inhibition at 10 µM. Also on record: species or system Bacillus cereus.
Assay [4] addresses T2, C-C chemokine receptor type 4 (Homo sapiens, UniProt P51679).
T2 sequence (P51679 whole entry): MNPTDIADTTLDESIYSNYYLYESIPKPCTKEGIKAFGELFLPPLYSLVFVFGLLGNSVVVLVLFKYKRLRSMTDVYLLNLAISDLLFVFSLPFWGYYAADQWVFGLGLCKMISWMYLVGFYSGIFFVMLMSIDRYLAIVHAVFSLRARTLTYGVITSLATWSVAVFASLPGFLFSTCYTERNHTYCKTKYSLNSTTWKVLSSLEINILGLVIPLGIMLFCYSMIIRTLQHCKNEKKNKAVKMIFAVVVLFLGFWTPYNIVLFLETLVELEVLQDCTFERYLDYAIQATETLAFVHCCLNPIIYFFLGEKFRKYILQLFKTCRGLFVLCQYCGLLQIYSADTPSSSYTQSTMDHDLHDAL
It is filed as cell membranes, Membrane. The following applies: chem-1.

The nature of assay [5]: DRUGMATRIX: Glutamate, AMPA radioligand binding (ligand: [3H] AMPA). The following applies: Not Active = under 50% inhibition at 10 µM. It is filed as cell membranes, Rattus norvegicus, Wistar, Cerebral cortex, Membrane.
Assay [6] concerns the target T3, 5-hydroxytryptamine receptor 2C (Homo sapiens, UniProt P28335).
T3 sequence (P28335 whole entry): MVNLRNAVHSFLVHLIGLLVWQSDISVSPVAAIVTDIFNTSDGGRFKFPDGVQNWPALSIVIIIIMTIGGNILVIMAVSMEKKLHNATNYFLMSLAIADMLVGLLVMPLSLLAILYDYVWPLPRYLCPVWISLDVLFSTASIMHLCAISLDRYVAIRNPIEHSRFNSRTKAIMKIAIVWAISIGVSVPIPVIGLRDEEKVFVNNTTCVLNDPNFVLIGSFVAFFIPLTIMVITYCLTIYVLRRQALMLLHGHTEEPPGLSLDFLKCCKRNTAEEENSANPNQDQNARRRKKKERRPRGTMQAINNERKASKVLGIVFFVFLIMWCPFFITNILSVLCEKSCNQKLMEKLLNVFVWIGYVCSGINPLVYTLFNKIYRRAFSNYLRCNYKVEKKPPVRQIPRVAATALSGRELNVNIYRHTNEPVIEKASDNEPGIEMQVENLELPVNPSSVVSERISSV
Briefly: DRUGMATRIX: Serotonin (5-Hydroxytryptamine) 5-HT2C radioligand binding (ligand: [3H] Mesulergine). Type of assay: cell membranes, CHO-K1, Membrane. The following applies: Not Active = under 50% inhibition at 10 µM.

The target in assay [7] is T4, Interstitial collagenase (Homo sapiens, UniProt P03956).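 Further: MMP-1 enzyme inhibition assay using a peptide substrate; in other assays of this panel Not Active means under 50% inhibition at 10 µM.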
T4 sequence (P03956 whole entry): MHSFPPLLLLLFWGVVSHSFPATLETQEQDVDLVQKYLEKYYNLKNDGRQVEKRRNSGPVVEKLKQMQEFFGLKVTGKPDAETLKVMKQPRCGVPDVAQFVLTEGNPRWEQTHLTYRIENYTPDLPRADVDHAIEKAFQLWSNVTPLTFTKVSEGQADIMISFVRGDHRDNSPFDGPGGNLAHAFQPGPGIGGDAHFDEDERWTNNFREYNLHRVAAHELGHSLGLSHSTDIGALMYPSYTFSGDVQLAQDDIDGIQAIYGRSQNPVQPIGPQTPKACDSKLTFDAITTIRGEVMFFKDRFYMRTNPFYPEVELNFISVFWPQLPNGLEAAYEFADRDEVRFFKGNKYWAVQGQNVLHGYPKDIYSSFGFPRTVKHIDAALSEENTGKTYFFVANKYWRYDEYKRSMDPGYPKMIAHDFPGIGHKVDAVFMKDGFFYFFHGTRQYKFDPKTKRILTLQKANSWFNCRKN
Kind of assay: biochemical. Type of assay: tissue-based, Rheumatoid synovial fibroblasts.

In the case of `CCOc1nc2cccc(C(=O)O)c2n1Cc1ccc(-c2ccccc2-c2nnn[nH]2)cc1`, the IC50 result in assay [1], in assay [2], in assay [3], in assay [4], in assay [5] and in assay [6] (cho-k1) was “Not Active” throughout. Moreover, the IC50 entry in assay [7] is given as “Not Active”. Further, the inhibitory constant (Ki) entry in assay [2], in assay [3] and in assay [5] was “Not Active” each time.

Turning to `O=C(O)CCCc1cccs1`, the IC50 result in assay [1], in assay [2], in assay [3], in assay [4], in assay [5] and in assay [6] (cho-k1) was “Not Active” throughout. Also, the IC50 result in assay [7] is given as “Not Active”. In addition, the Ki result in assay [2], in assay [3] and in assay [5] was “Not Active” throughout.

Turning to `COc1ccccc1N`, the IC50 result in assay [1], in assay [2], in assay [3], in assay [4], in assay [5] and in assay [6] (cho-k1) was “Not Active” in each case. In addition, in assay [7], the IC50 result is recorded as “Not Active”. In addition, the inhibition constant Ki entry in assay [2], in assay [3] and in assay [5] was “Not Active” in each case.

In the case of `O=C(c1ccccc1F)N1CCC(Cc2ccccc2)CC1`, the IC50 entry in assay [1], in assay [2], in assay [3], in assay [4], in assay [5] and in assay [6] (cho-k1) was “Not Active” each time. For the same molecule, the IC50 entry in assay [7] is reported as “Not Active”. Moreover, the Ki entry in assay [2], in assay [3] and in assay [5] was “Not Active” each time.

On to `Cc1c(O)cccc1C(=O)N[C@@H](CSc1ccccc1)[C@H](O)CN1C[C@H]2CCCC[C@H]2C[C@H]1C(=O)NC(C)(C)C`, for which the IC50 entry in assay [1], in assay [2], in assay [3], in assay [4], in assay [5] and in assay [6] (cho-k1) was “Not Active” each time. Moreover, the IC50 result in assay [7] is given as “Not Active”. Further, the Ki result in assay [2], in assay [3] and in assay [5] was “Not Active” in each case.

Consider `CC(O)COC[C@H]1O[C@@H]2O[C@H]3[C@H](O)[C@@H](O)[C@@H](O[C@H]4[C@H](O)[C@@H](O)[C@@H](O[C@H]5[C@H](O)[C@@H](O)[C@@H](O[C@H]6[C@H](O)[C@@H](O)[C@@H](O[C@H]7[C@H](O)[C@@H](O)[C@@H](O[C@H]8[C@H](O)[C@@H](O)[C@@H](O[C@H]1[C@H](O)[C@H]2O)O[C@@H]8COCC(C)O)O[C@@H]7COCC(C)O)O[C@@H]6COCC(C)O)O[C@@H]5COCC(C)O)O[C@@H]4COCC(C)O)O[C@@H]3COCC(C)O` (stereo partly drawn) [2-HYDROXYPROPYL-BETA-CYCLODEXTRIN], for which the 50% inhibitory concentration (IC50) result was “Not Active” in assay [1]; “Not Active” in assay [2]; “Not Active” in assay [3]; “Not Active” in assay [4]; “Not Active” in assay [5]; 1590 nM in assay [6] (read-out: IC50). Moreover, in assay [7], the IC50 entry was “Not Active”. For the same molecule, the Ki result in assay [2] was “Not Active”; in assay [3] it was “Not Active”; in assay [5], “Not Active”; in assay [6] (read-out: Ki) it was 833 nM.

Take `NC(=O)c1cccc(N)c1` [3-AMINOBENZAMIDE]: the IC50 entry in assay [1], in assay [2], in assay [3], in assay [4], in assay [5] and in assay [6] (cho-k1) was “Not Active” in each case. In addition, the IC50 result in assay [7] is “Not Active”. The Ki result in assay [2], in assay [3] and in assay [5] was “Not Active” each time.

With `C[C@H]1O[C@H](O[C@H]2[C@H](O)[C@@H](O)[C@@H](O[C@H]3[C@H](O)[C@@H](O)C(O)O[C@@H]3CO)O[C@@H]2CO)[C@H](O)[C@@H](O)[C@@H]1N[C@H]1C=C(CO)[C@@H](O)[C@H](O)[C@H]1O` (stereo not given in full) [ACARBOSE], the IC50 entry in assay [1], in assay [2], in assay [3], in assay [4], in assay [5] and in assay [6] (cho-k1) was “Not Active” in each case. Also, in assay [7], the IC50 entry is on record as “Not Active”. The Ki result in assay [2], in assay [3] and in assay [5] was “Not Active” in each case.

Consider `CC[C@H]1[C@@H]2C[C@H]3[C@@H]4N(C)c5ccccc5[C@]45C[C@@H]([C@@H]2[C@H]5O)N3[C@@H]1O` [AJMALINE], for which the IC50 entry in assay [1], in assay [2], in assay [3], in assay [4], in assay [5] and in assay [6] (cho-k1) was “Not Active” in each case. Further, in assay [7], the IC50 result is “Not Active”. Moreover, the inhibitory constant (Ki) entry in assay [2], in assay [3] and in assay [5] was “Not Active” each time.

For `NC12CC3CC(CC(C3)C1)C2` [AMANTADINE], the IC50 entry in assay [1], in assay [2], in assay [3], in assay [4], in assay [5] and in assay [6] (cho-k1) was “Not Active” throughout. Moreover, in assay [7], the IC50 entry is “Not Active”. The Ki entry in assay [2], in assay [3] and in assay [5] was “Not Active” in each case.

Take `NCCCNCCSP(=O)(O)O` [AMIFOSTINE]: the IC50 result in assay [1], in assay [2], in assay [3], in assay [4], in assay [5] and in assay [6] (cho-k1) was “Not Active” each time. The IC50 result in assay [7] is listed as “Not Active”. Moreover, the Ki result in assay [2], in assay [3] and in assay [5] was “Not Active” in each case.

For the molecule `CC(C)c1c(C(=O)Nc2ccccc2)c(-c2ccccc2)c(-c2ccc(F)cc2)n1CC[C@@H](O)C[C@@H](O)CC(=O)O` [ATORVASTATIN], the IC50 result in assay [2], in assay [3], in assay [4], in assay [5], in assay [6] (cho-k1) and in assay [7] was “Not Active” in each case. Further, the Ki entry in assay [2], in assay [3] and in assay [5] was “Not Active” throughout.
